Data: EP2125859B1, “ESTRATRIENE DERIVATIVES AND THEIR USES AS 17BETA-HYDROXYSTEROID DEHYDROGENASE INHIBITORS” (Abbott Products GmbH, priority 2006, dated 2008)

Legend:
[1] = target: T1, recombinant human 17β-HSD1 (Homo sapiens, UniProt P14061); assay: Inhibition of recombinant human 17β-HSD1 (HPLC assay, conversion of 3H-estrone to estradiol); type: biochemical; conditions: 0.5 h, 30 nM 3H-estrone, 1 mM NADPH, 30 min at RT, read-out: inhibition of rec. 17β-HSD1; for inhibition at 0.1 µM: 100 nM inhibitor; for inhibition at 1 µM: 1 µM inhibitor
T1 construct: made in house; host or cells: Sf9 insect cells (baculovirus, Bac to Bac Expression System)
T1 sequence (P14061 1-328): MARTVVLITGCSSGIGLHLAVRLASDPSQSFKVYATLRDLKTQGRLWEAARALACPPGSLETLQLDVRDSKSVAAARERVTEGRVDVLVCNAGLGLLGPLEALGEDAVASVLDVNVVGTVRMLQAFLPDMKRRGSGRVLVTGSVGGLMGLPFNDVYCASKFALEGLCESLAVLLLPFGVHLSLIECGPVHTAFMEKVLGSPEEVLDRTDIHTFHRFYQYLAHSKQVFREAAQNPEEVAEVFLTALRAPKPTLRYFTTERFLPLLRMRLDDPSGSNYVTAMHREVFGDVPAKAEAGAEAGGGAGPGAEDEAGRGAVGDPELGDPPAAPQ
Method: Inhibition of the 17β-hydroxysteroid dehydrogenase type 1 enzyme 17β-HSD1 purification: Recombinant baculovirus was generated by the "Bac to Bac Expression System" (Invitrogen). Recombinant bacmid was transfected to Sf9 insect cells using "Cellfectin Reagent" (Invitrogen). 60h later cells were harvested; the microsomal fraction was isolated as described by Puranen et al. (1994). Aliquots were stored frozen until determination of enzymatic activity.
Assay - Inhibition of recombinant human 17β-HSD1: Recombinant protein (0.1 µg/ml) was incubated in 20 mM KH2PO4 pH 7.4 with 30 nM 3H-estrone and 1 mM NADPH for 30 min at RT, in the presence of potential inhibitors at concentrations of 1 µM or 0.1 µM. Inhibitor stock solutions were prepared in DMSO. Final concentration of DMSO was adjusted to 1 % in all samples. The enzyme reaction was stopped by addition of 10 % trichloroacetic acid (final concentration). Samples were centrifuged in a microtiter plate at 4000 rpm for 10 min. Supernatants were applied to reverse phase HPLC on a Waters Symmetry C18 column, equipped with a Waters Sentry Guard column. Isocratic HPLC runs were performed at RT at a flow rate of 1 ml/min of acetonitrile:water 48:52 as running solvent. Radioactivity was monitored in the eluate by a Packard Flow Scintillation Analyzer. Total radioactivity for estrone and estradiol were determined in each sample and percent conversion of estrone to estradiol was calculated according to the following formula: [formula] [formula]
The values "% inhibition" were determined for exemplified compounds, and the results are summarized in table 4 (for 17β-HSD1). table 4: HSD 1 inhibition values in % of selected compounds of formula I

17β-HSD3 = target: T2, 17β-HSD3 (Homo sapiens, UniProt P37058); assay: Inhibition of 17β-HSD3 in MCF-7 cell lines stably expressing the enzyme (HPLC, tritium labeled androstenedione); type: cell-based; conditions: MCF7, MCF-7 cells expressing 17β-HSD3, androstenedione 2 nM
T2 construct: expressed in transfected cells; host or cells: MCF-7 cells stably expressing 17β-HSD3
T2 sequence (P37058 1-310): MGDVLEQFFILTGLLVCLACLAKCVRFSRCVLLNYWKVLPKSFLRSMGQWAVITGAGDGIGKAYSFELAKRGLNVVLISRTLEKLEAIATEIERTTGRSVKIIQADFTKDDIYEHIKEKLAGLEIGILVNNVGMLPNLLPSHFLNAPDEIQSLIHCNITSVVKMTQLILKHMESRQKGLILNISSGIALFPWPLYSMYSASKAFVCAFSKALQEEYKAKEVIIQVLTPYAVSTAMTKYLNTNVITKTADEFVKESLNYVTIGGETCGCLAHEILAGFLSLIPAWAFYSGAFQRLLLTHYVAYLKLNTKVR
Method: The compounds were screened in respect of 17β-HSD3 enzyme activity in vitro on established MCF-7 cell lines, each stably expressing the 17β-HSD3 enzyme. The interconversion of substrate by 17β-HSD3 and the 17β-HSD3 inhibiting activity of chemical compounds in these cell lines were detected by HPLC system.
Varying amounts of the test compounds were incubated in the growth medium of the 17β-HSD3 expressing cells together tritium labeled androstenedione (2 nM). The medium samples were removed after exact incubation time and the reaction is stopped by trichloroacetic acid (TCA). The samples were analyzed by HPLC-coupled flow scintillation analysis.
Conversion: The 17β-HSD3 inhibiting activity of an individual test compound was calculated by comparing the conversion of a control sample without any test compound (referred to as "Negative Control") to the (reduced) conversion of the test sample containing the particular compound to be tested (referred to as "Test Sample"). [formula]
Two concentrations of each compound were used. The number of the compound refers to the numbers indicated in the Experimental Section.
The values "% inhibition" were determined for exemplified compounds, and the results are summarized in table 5 (HSD 3). table 5: 17β-HSD3 inhibition values in % of selected compounds of formula I

SMILES | inhibition at 0.1 µM [1] | inhibition at 1 µM [1] | inhibition at 1 µM (17β-HSD3) | inhibition at 10 µM (17β-HSD3)
C[C@]12CC[C@@H]3c4ccc(O)cc4CC[C@H]3[C@@H]1[C@H](CCCc1cn(-c3ccc(F)cc3F)nn1)CC2(F)F [Compound 302, 15-{3-[1-(2,4-difluorophenyl)-1H-1,2,3-triazol-4-yl]propyl}-17,17-difluoroestra-1(10),2,4-trien-3-ol] | 88% | 96% | 13% | 70%
CCCCn1cc(CCCC2CC(=O)[C@@]3(C)CC[C@@H]4c5ccc(O)cc5CC[C@H]4[C@H]23)nn1 (some centres unmarked) [Compound 300, 15-[3-(1-butyl-1H-1,2,3-triazol-4-yl)propyl]-3-hydroxyestra-1(10),2,4-trien-17-one] | 85% | 88% | 29% | 61%
CC(C)CCc1cn(CC[C@@H]2CC(=O)[C@@]3(C)CC[C@@H]4c5ccc(O)cc5CC[C@H]4[C@H]23)nn1 [Compound 4, 3-Hydroxy-15β-{2-[4-(3-methyl-butyl)-[1,2,3]triazol-1-yl]-ethyl}-estra-1,3,5(10)-trien-17-one] | 92% | 96% | 5% | 40%
CC(C)Cc1cn(CCC[C@@H]2CC(=O)[C@@]3(C)CC[C@@H]4c5ccc(O)cc5CC[C@H]4[C@H]23)nn1 [Compound 24, 3-Hydroxy-15β-[3-(4-iso-butyl-[1,2,3]triazol-1-yl)-propyl]-estra-1,3,5(10)-trien-17-one] | 52% | 85% | 24% | 64%
C[C@]12CC[C@@H]3c4ccc(O)cc4CC[C@H]3[C@@H]1[C@H](CCCc1cn(-c3ccc(F)cc3F)nn1)CC2=O [Compound 301, 15β-{3-[1-(2,4-difluorophenyl)-1H-1,2,3-triazol-4-yl]propyl}-3-hydroxyestra-1(10),2,4-trien-17-one] | 82% | 88% | 24% | 57%
CC(C)CCc1cn(CCC[C@@H]2CC(=O)[C@@]3(C)CC[C@@H]4c5ccc(O)cc5CC[C@H]4[C@H]23)nn1 [Compound 17, 3-Hydroxy-15β-{3-[4-(3-methyl-butyl)-[1,2,3]triazol-1-yl]-propyl}-estra-1,3,5(10)-trien-17-one] | 61% | 88% | 3% | 50%
C[C@]12CC[C@@H]3c4ccc(O)cc4CC[C@H]3[C@@H]1[C@H](CCn1cc(-c3ccccc3C(F)(F)F)nn1)CC2=O [Compound 19, 3-Hydroxy-15β-{2-[4-(2-trifluoromethyl-phenyl)-[1,2,3]triazol-1-yl]-ethyl}-estra-1,3,5(10)-trien-17-one] | 71% | 87% | 11% | 52%
C[C@]12CC[C@@H]3c4ccc(O)cc4CC[C@H]3[C@@H]1[C@H](CCCn1cc(CCc3ccccc3)nn1)CC2=O [Compound 8, 3-Hydroxy-15β-[3-(4-phenethyl-[1,2,3]triazol-1-yl)-propyl]-estra-1,3,5(10)-trien-17-one] | 81% | 93% | 6% | 61%
